Assay: Stability tests of imipenem with increasing concentrations of tested molecules
Method: These tests were conducted by comparing UV absorbance slope measurements of impenem alone, and then imipenem with the concerned azetidinimines at given concentrations in the presence of the enzyme. It was thus possible to monitor the hydrolysis of imipenem. Lower the value of the slope, the higher is the percentage of inhibition of the enzyme.
Stability tests of imipenem with increasing concentrations of tested molecules of the present invention (T4#1, i.e. compound #1 of table 4; T4#7 i.e. compound #7 of table 4; T4#9 i.e. compound #9 of table 4; T4#2 i.e. compound #2 of table 4) were also conducted (Table 2).

## COc1ccc(N2/C(=N/c3ccccc3)CC2c2ccc(Cl)cc2)cc1 (stereo not drawn) [T4#9, (E)-N-(4-(4-chlorophenyl)-1-(4-methoxyphenyl)azetidin-2-ylidene)aniline]
C 1 μM of tested molecule
  Slope (stability test of imipenem): 2
C 10 μM of tested molecule
  Slope (stability test of imipenem): 38
C 100 μM of tested molecule
  Slope (stability test of imipenem): 390

From patent US11174226B2, “Azetidinimines as carbapenemases inhibitors” (priority 2015, dated 2021)
